US7740882B2, “Enhanced oral and transcompartmental delivery of therapeutic or diagnostic agents” (priority 2001, dated 2010)
Entries after “also recorded” stand apart in the source; their conditions may differ. Where two headings read alike, the source gives them in different places. Values belong to the molecule of their own block, whether it stands above or below them. Non-standard residues stand in square brackets, D forms with d.

Legend:
SMVT [1] = molecular target: T1, SMVT (Homo sapiens, UniProt Q9Y289); settings: read-out: Ki, competitive inhibition of RI-K(biotin)-Tat9 transport; Caco-2, inhibitors at 10 and 20 μM
T1 sequence (Q9Y289 1-635): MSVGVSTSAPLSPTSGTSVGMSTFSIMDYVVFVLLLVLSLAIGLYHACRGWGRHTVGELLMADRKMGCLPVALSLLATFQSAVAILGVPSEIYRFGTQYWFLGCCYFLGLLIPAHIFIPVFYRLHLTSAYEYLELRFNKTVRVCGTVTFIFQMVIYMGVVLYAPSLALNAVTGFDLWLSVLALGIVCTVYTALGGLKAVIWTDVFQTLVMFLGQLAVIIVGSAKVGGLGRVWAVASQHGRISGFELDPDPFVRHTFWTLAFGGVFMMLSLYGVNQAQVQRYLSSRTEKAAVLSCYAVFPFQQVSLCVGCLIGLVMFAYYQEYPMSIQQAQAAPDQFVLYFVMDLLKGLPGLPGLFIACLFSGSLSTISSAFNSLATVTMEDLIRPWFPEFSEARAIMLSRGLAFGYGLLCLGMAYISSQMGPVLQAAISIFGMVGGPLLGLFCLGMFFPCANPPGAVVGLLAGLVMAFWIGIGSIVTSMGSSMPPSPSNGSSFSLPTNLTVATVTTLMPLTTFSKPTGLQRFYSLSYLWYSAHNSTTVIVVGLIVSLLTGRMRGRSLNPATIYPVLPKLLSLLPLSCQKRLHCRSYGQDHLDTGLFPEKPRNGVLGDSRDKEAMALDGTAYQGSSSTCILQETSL
From the text: [formula] where Pe is the effective permeability of the substrate transported, Cs is the substrate concentration and Pm and Pc represent the passive and carrier-mediated component of the permeability. All data were initially fitted to a 3-parameter model (Pc, Pm, Km for Caco-2 studies, Jmax, Pm, Km for CHO studies). […] The data from inhibition studies were transformed into Lineweaver-Burke plots to determine the nature of the inhibition process (competitive, non-competitive). Subsequently, the inhibition constant (Ki) values were estimated using Dixon plots. Data used for the above plots were weighted using 1/SEM^2 (S.E.M=Standard Error of Mean). The kinetic parameters for CHO cell studies were estimated by performing non-linear regression using the equation J=Jmax*[C]/(Km+[C])+Pm*C, where J is the rate of permeant uptake, Pm is the passive uptake component and [C] is the substrate concentration. Data were weighted using 1/S.E.M^2.

SMVT [2] = molecular target: T1, SMVT; settings: read-out: Ki, competitive inhibition of biotin-PEG-3400 transport; Caco-2, inhibitors at 10 and 20 μM
From the text: Data Analysis. The Michaelis-Menten kinetic parameters for the Caco-2 cell monolayer transport studies were estimated by performing weighted non-linear regression with Scientist software (MicroMath, Utah) using the following equation: Pe=Pm+Pc/(1+C/Km), where Pe is the effective permeability of the substrate transported, C is the substrate concentration and Pm and Pc represent the passive and carrier-mediated component of the permeability. The data from inhibition studies were transformed into Lineweaver-Burke plots to determine the nature of the inhibition process (competitive, non-competitive). […] Data used for the above plots were weighted using 1/S.E.M.^2. The kinetic parameters for CHO cell studies were estimated by performing non-linear regression using the equation J=Jmax*[C]/(Km+[C]), where J is the rate of permeant uptake, Jmax is the maximal uptake velocity and [C] is the substrate concentration. Data were weighted using 1/S.E.M.^2. Statistical analyses were performed using Jandel SigmaStat, version 2.03. One-way analysis of variance was used to test the difference in the mean values of uptake using p<0.05 as the significance level for all tests.

SMVT [3] = molecular target: T1, SMVT; assay: Inhibition of substrate uptake in CHO/hSMVT cells by 50 μM SMVT substrates; format: in vitro ADME; parameters: expressed in transfected cells; host or cells: CHO cells (ATCC), transient Lipofectamine transfection; plasmid was a gift of Dr. Puttur D. Prasad
in vitro = settings: human, Caco-2
Method: (§2) Caco-2 Cell Transport Studies An Ussing-type diffusion chamber system (Harvard Apparatus, Natick, Mass.) was used to perform transport studies. The apical solution was a MES Ringer's buffer (pH 6.5) consisting of 114.0 mM NaCl, 5.0 mM KCl, 1.1 mM MgSO4, 1.25 mM CaSO4, and 15 mM 2-(N-morpholino)ethanesulfonic acid (MES). The basolateral solution was a Ringer's buffer (pH 7.4) consisting of 114.0 mM NaCl, 5.0 mM KCl, 1.65 mM Na2HPO4, 0.3 mM NaH2PO4, 25 mM NaHCO3, 1.1 mM MgSO4, and 1.25 mM CaSO4. Both buffers contained 25 mM glucose and were adjusted to 290 mOsm/kg using a vapor pressure osmometer (Wescor Inc, Logan, Utah). For transport experiments using filters with cell monolayers, the inserts were rinsed with Ringer's buffet containing 25 mM glucose three times over a 20 min period at room temperature. The TEER was measured for each monolayer before it was mounted onto the diffusion chamber, which was pre-warmed to 37° C. by placement on the heating blocks. The volume of each half-chamber was 5 ml and the surface area of the Snapwell™ filters available for drug transport was 1 cm^2. […] The donor solution consisted of radiolabeled permeant in the apical buffer [apical (AP) to basolateral (BL) study]. Starting at 30 min, samples were taken from the receptor chamber every 15 min until the end of the experiment (105 min). A minimum of three monolayers was used to determine the permeability of test compound in each study and sample analysis was performed using scintillation counting (Perkin Elmer, Gaithersburg, Md.).
(§3) The Michaelis-Menten kinetic parameters of Caco-2 and CHO cell transport were then estimated using non-linear regression.
(§4) Prior to experimentation, diffusion chambers mounted with the Snapwells™ containing Caco-2 cells were equilibrated at 5° C., 10° C., 15° C., 25° C. and 37° C.
(§5) [formula] where Pe is the effective permeability of the substrate transported, Cs is the substrate concentration and Pm and Pc represent the passive and carrier-mediated component of the permeability. All data were initially fitted to a 3-parameter model (Pc, Pm, Km for Caco-2 studies, Jmax, Pm, Km for CHO studies).
(§6) Caco-2 Cell Transport Studies An Ussing-type diffusion chamber system (Harvard Apparatus, Natick, Mass.) was used to perform transport studies. The apical solution was a MES Ringer's buffer (pH 6.5) consisting of 114.0 mM NaCl, 5.0 mM KCl, 1.1 mM MgSO4, 1.25 mM CaSO4, and 15 mM 2-(N-morpholino)ethanesulfonic acid (MES). The basolateral solution was a Ringer's buffer (pH 7.4) consisting of 114.0 mM NaCl, 5.0 mM KCl, 1.65 mM Na2HPO4, 0.3 mM NaH2PO4, 25 mM NaHCO3, 1.1 mM MgSO4, and 1.25 mM CaSO4. Both buffers contained 25 mM glucose and were adjusted to 290 mOsm/kg using a vapor pressure osmometer (Wescor Inc, Logan, Utah). For transport experiments using filters with cell monolayers, the inserts were rinsed with Ringer's buffer containing 25 mM glucose three times over a 20 min period at room temperature. The TEER was measured for each monolayer before it was mounted onto the diffusion chamber, which was pre-warned to 37° C. by placement on the heating blocks.

Caco-2 cell monolayers [4] = assay: Absorptive (AP to BL) transport across Caco-2 cell monolayers; settings: Caco-2 AP to BL
Method: as §2, §3, §4, §5, §6

[5] = system: bovine brain microvessel endothelial cells (BBMECs); assay: Transport (permeability) across BBMEC monolayers, in vitro BBB model
Method: Non-biotinylated PEGs were used in the control studies.
Isolation and culture of BBMECs. Bovine Brain Microvessel Endothelial Cells (BBMECs) were used as an in vitro model of BBB. BBMECs were isolated from bovine brain by a two-step enzymatic method and the cells were cultured on collagen coated Transwell™ plates or polystyrene plates in an atmosphere of 95% air and 5% CO2 at 37° C. Transendothelial electrical resistance (TEER) and several molecular markers were used to validate the integrity of the cell culture system.
The cells were cultured on 12-well Transwell™ filters for 7-8 days and transport was evaluated. […] All studies were performed at 37° C.

[6] = molecular target: T2, human sodium dependent multivitamin transporter, hSMVT (Homo sapiens, UniProt Q9Y289); assay: Uptake in CHO cells transiently transfected with hSMVT (CHO/hSMVT); settings: not concentration dependent controls
T2 sequence (Q9Y289 1-635): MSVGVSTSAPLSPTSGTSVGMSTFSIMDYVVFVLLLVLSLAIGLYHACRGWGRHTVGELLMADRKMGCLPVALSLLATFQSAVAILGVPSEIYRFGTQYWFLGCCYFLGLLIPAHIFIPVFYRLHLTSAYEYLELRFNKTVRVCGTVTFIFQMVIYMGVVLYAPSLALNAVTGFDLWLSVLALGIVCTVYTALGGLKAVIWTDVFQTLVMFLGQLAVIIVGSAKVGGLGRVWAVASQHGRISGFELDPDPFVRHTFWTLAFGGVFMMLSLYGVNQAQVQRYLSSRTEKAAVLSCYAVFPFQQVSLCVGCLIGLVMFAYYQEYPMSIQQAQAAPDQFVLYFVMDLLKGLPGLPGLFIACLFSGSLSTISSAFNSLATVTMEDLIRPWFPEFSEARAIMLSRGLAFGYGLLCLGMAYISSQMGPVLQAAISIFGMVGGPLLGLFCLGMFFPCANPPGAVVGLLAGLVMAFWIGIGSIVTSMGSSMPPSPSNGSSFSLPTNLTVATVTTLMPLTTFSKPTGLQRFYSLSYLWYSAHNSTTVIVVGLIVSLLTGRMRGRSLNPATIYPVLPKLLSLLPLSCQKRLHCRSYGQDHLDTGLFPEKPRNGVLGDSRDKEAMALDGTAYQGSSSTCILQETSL
Method: (§1) CHO Cell Uptake Studies CHO cells transiently transfected with hSMVT (CHO/hSMVT) were washed twice with 25 mM uptake buffer, containing 25 mM Hepes/Tris pH 7.5, 140 mM NaCl, 5.4 mM KCl, 1.8 CaCl2, 0.8 mM MgSO4 and 5 mM glucose, approximately 48 hours post-transfection. Subsequently, the cells were incubated with the permeant at 37° C. for 10 minutes. Uptake was stopped by washing the cells thrice with ice-cold buffer. Non-specific uptake was measured in parallel experiments with the control pSPORT vector-transfected CHO cells. Finally, the cells were solubilized by 0.1% v/v Triton X-100, and 0.6 ml was used for scintillation counting. From the remaining volume, 10 μl of solution was taken from each well and protein concentration was determined using the Bio-Rad reagent according to the Bradford technique [M. Bradford, A rapid and sensitive method of quantitation of microgram quantities of protein utilizing the principle of protein-dye binding, Anal. Biochem. 72 (1976) 248]. Bovine serum albumin was used as the standard.
Parallel uptake experiments were performed using CHO/pSPORT control cells.
as §1, with “hSMVT” for “hSMVT (CHO/hSMVT)”, “glucose.” for “glucose, approximately 48 hours post-transfection.”, “Washing” for “Uptake was stopped by washing”, “three times” for “thrice”, “buffer stopped drug uptake.” for “buffer.”, “manufacturer's instructions.” for “Bradford technique [M. Bradford, A rapid and sensitive method of quantitation of microgram quantities of protein utilizing the principle of protein-dye binding, Anal. Biochem. 72 (1976) 248].”
as §1, with “Studies.” for “Studies”, “glucose.” for “glucose, approximately 48 hours post-transfection.”, “manufacturer's instructions.” for “Bradford technique [M. Bradford, A rapid and sensitive method of quantitation of microgram quantities of protein utilizing the principle of protein-dye binding, Anal. Biochem. 72 (1976) 248].”

CHO/pSPORT cells = assay: Non-specific uptake in vector-transfected control CHO/pSPORT cells
Method: as §1, with “From the remaining volume, 10 μl of solution was taken from each well and protein concentration was determined using the Bio-Rad reagent according to the Bradford technique [M. Bradford, A rapid and sensitive method of quantitation of microgram quantities of protein utilizing the principle of protein-dye binding, Anal. Biochem. 72 (1976) 248].” left out
CHO Cell Uptake Studies CHO cells transiently transfected with hSMVT were washed twice with 25 mM uptake buffer, containing 25 mM Hepes/Tris pH 7.5, 140 mM NaCl, 5.4 mM KCl, 1.8 CaCl2, 0.8 mM MgSO4 and 5 mM glucose. […] Non-specific uptake was measured in parallel experiments with the control pSPORT vector-transfected CHO cells. […] From the remaining volume, 10 μl of solution was taken from each well and protein concentration was determined using the Bio-Rad reagent according to the manufacturer's instructions. […]
CHO Cell Uptake Studies. […] Non-specific uptake was measured in parallel experiments with the control pSPORT vector-transfected CHO cells. […]

Caco-2 cell monolayers [7] = system: Caco-2 cell monolayers
Method: as §2, §3, §4, §5, §6

[8] = substrate: O=C(O)CCCC[C@@H]1SC[C@@H]2NC(=O)N[C@@H]21; assay: cells, lysate or membranes named; settings: other: uptake in CHO/hSMVT cells, 10 min, 37° C., pH 7.5

Molecule: N[C@@H](CCCCNC(=O)CCCC[C@@H]1SC[C@@H]2NC(=O)N[C@@H]21)C(=O)O [biocytin]
Ki (SMVT [1]): 3.27 µM | Ki (SMVT [2]): 14 µM | inhibition of RI-K(biotin)-Tat9 uptake (SMVT [3]; 0.1 μM RI-K(biotin)-Tat9, inhibitor 50 μM): significantly inhibited; also recorded: significantly lowered (p<0.001) | inhibition of biotin-PEG-3400 uptake (SMVT [3]; 0.1 μM biotin-PEG-3400, inhibitor 50 μM): significantly (p<0.01) inhibited | inhibition of PEG:(RI-K(biotin)-Tat9)8 uptake (SMVT [3]; 0.1 μM conjugate, inhibitor 50 μM): significantly lower (p<0.05)

Papp A→B at 105 min (in vitro): 2.12 ×10⁻⁶ cm/s | absorptive/effective permeability (Pe) (Caco-2 cell monolayers [4]): 1.42 (±0.28)×10^−6 cm/sec
Molecule: OC[C@@H](O)[C@@H](O)[C@H](O)[C@H](O)CO [mannitol]

Molecule: N-acetyl-D-Lys-D-Arg-D-Arg-D-Arg-D-Gln-D-Arg-D-Arg-D-Lys-D-Lys-D-Arg-NH2 (Ac-[dK][dR][dR][dR][dQ][dR][dR][dK][dK][dR]-NH2; SMILES CC(=O)N[C@H](CCCCN)C(=O)N[C@H](CCCNC(=N)N)C(=O)N[C@H](CCCNC(=N)N)C(=O)N[C@H](CCCNC(=N)N)C(=O)N[C@H](CCC(N)=O)C(=O)N[C@H](CCCNC(=N)N)C(=O)N[C@H](CCCNC(=N)N)C(=O)N[C@H](CCCCN)C(=O)N[C@H](CCCCN)C(=O)N[C@H](CCCNC(=N)N)C(N)=O) [RI-K-Tat9]
Papp [5]: 7.3 ×10⁻⁶ cm/s | uptake in CHO/hSMVT cells [6]: < 1 pmol/mg protein/10 min | uptake in CHO/pSPORT cells (CHO/pSPORT cells): < 1 pmol/mg protein/10 min

absorptive/effective permeability (Pe) (Caco-2 cell monolayers [7]): ~1 ×10⁻⁶ cm/s
Molecule: PEG-3350 [reference compound]

B1: human sodium dependent multivitamin transporter, hSMVT (Homo sapiens) (protein)
chain: MSVGVSTSAPLSPTSGTSVGMSTFSIMDYVVFVLLLVLSLAIGLYHACRGWGRHTVGELLMADRKMGCLPVALSLLATFQSAVAILGVPSEIYRFGTQYWFLGCCYFLGLLIPAHIFIPVFYRLHLTSAYEYLELRFNKTVRVCGTVTFIFQMVIYMGVVLYAPSLALNAVTGFDLWLSVLALGIVCTVYTALGGLKAVIWTDVFQTLVMFLGQLAVIIVGSAKVGGLGRVWAVASQHGRISGFELDPDPFVRHTFWTLAFGGVFMMLSLYGVNQAQVQRYLSSRTEKAAVLSCYAVFPFQQVSLCVGCLIGLVMFAYYQEYPMSIQQAQAAPDQFVLYFVMDLLKGLPGLPGLFIACLFSGSLSTISSAFNSLATVTMEDLIRPWFPEFSEARAIMLSRGLAFGYGLLCLGMAYISSQMGPVLQAAISIFGMVGGPLLGLFCLGMFFPCANPPGAVVGLLAGLVMAFWIGIGSIVTSMGSSMPPSPSNGSSFSLPTNLTVATVTTLMPLTTFSKPTGLQRFYSLSYLWYSAHNSTTVIVVGLIVSLLTGRMRGRSLNPATIYPVLPKLLSLLPLSCQKRLHCRSYGQDHLDTGLFPEKPRNGVLGDSRDKEAMALDGTAYQGSSSTCILQETSL
Km [8]: 1.39 (0.59) μM
